Laboratory results taken from patent US11332464B2, “Inhibitors of lysine gingipain” (priority 2014, dated 2022).
Several values for one entry are separate records, joined by “and”; a condition that tells them apart may be missing. Equal entries are not always repeated. Entries after “also recorded” stand apart in the source; their conditions may differ. Where two headings read alike, the source gives them in different places.

Key:
Kgp = Kgp (Porphyromonas gingivalis, UniProt P72197); assay: Lysine gingipain (Kgp) fluorogenic inhibition assay; format: biochemical
Procedure: The capacities of compounds of the present invention to inhibit the activity of lysine gingipain were measured in a fluorogenic assay similar to those described in Barret Biochemical Journal. 1980, 187(3), 909. The specific assay conditions were as follows. Buffer: pH=7.5, 100 mM Tris-HCl, 75 mM NaCl, 2.5 mM CaCl2, 10 mM cysteine, 1% DMSO after all additions. Protein: 0.1 nM Kgp, isolated from culture of Porphyromonas gingivalis, as described in Pike et al. J. Biol. Chem. 1994, 269(1), 406, and Potempa and Nguyen. Current Protocols in Protein Science. 2007, 21.20.1-21.20.27. Fluorogenic substrate: 10 uM Z-His-Glu-Lys-MCA. Time=90 minutes. Temperature=37° C. Each compound: 10 concentrations, starting at either 100 uM or 100 nM, with lower concentrations generated by serial 3-fold dilutions. By testing a range of concentrations for each compound, the concentration required to inhibit the activity of lysine gingipain by 50% (the “IC50”) was determined. Under the described assay conditions, signal-to-noise was excellent, and Z factor was greater than 0.6.

[1] = tested on: differentiated SH-SY5Y neuroblastoma cells; assay: Gingipain-induced death of differentiated SH-SY5Y cells; format: cell-based; conditions: 100 nM Kgp and/or RgpB for 24 hours
Procedure: SH-SY5Y neuroblastoma cells were cultured and differentiated in the presence of 5 uM retinoic acid based on established methods [Saberi S., et al. Cell Mol Neurobiol 2013. 33: 747-751]. Differentiation into neuronal cells was verified by observation of neurite outgrowth. The differentiated cells were exposed to 100 nM Kgp and/or RgpB for 24 hours, in the presence or absence of Kgp inhibitors. Results were recorded using a digital microscope camera (FIG. 1C, FIG. 2C). Gingipains are toxic to cells while COR compounds prevent the cytotoxicity.

SHSY5Y cells = assay: P. gingivalis-induced toxicity in SHSY5Y cells; format: cell-based; conditions: in vitro, compared to moxifloxacin
[2] = Kgp IC50 average, 0.1 nM Kgp, 10 uM Z-His-Glu-Lys-MCA, 90 minutes, 37° C.
[3] = read-out: Kgp IC50 average, 0.1 nM Kgp, 10 uM Z-His-Glu-Lys-MCA, 90 minutes, 37° C.

Structure (SMILES) | IC50 (Kgp; [2]) | other results
NCCCCC(NC(=O)[C@@H]1CCCN(C(=O)CCc2ccccc2)C1)C(=O)c1nc2ccccc2s1 (single isomer, unassigned) [Compound 14] | 1 to 10 nM | –
NCCCCC(NC(=O)[C@@H]1CCCN(C(=O)CCc2ccccc2)C1)C(=O)c1nc2ccccc2s1 (single isomer, unassigned) [Compound 15] | – | IC50 (Kgp; [3]): 1 to 10 nM
NCCCC[C@H](NC(=O)C1CCCOC1)C(=O)c1nc2ccccc2s1 (single isomer, unassigned) [Compound 18] | 10 to 25 nM | –
NCCCC[C@H](NC(=O)C1CCCOC1)C(=O)c1nc2ccccc2s1 (single isomer, unassigned) [Compound 19] | – | IC50 (Kgp; [3]): 10 to 25 nM
NCCCC[C@H](NC(=O)C1CCCCO1)C(=O)c1nc2ccccc2s1 (single isomer, unassigned) [Compound 25] | 25 to 50 nM | –
NCCCC[C@H](NC(=O)C1CCCCO1)C(=O)c1nc2ccccc2s1 (single isomer, unassigned) [Compound 26] | – | IC50 (Kgp; [3]): 25 to 50 nM
NCCCC[C@H](NC(=O)C1CCCO1)C(=O)c1nc2ccccc2s1 (single isomer, unassigned) [Compound 34] | 1 to 10 nM | –
NCCCC[C@H](NC(=O)C1CCCO1)C(=O)c1nc2ccccc2s1 (single isomer, unassigned) [Compound 35] | – | IC50 (Kgp; [3]): 1 to 10 nM
NCCCC[C@H](NC(=O)c1ccccc1)C(=O)c1nc2ccccc2s1 [Compound 1, N-[(1S)-5-amino-1-(1,3-benzothiazole-2-carbonyl)pentyl]benzamide] | 50 to 100 nM and 25 to 50 nM | prevention of gingipain-induced death of differentiated SHSY-5Y cells [1]: effective at preventing cell death; also recorded: prevents gingipain-induced death
NCCCC[C@H](NC(=O)C1CCCCC1)C(=O)c1nc2ccccc2s1 [Compound 2, N-[(1S)-5-amino-1-(1,3-benzothiazole-2-carbonyl)pentyl]cyclohexanecarboxamide] | 1 to 10 nM and 10 to 25 nM | prevention of gingipain-induced death of differentiated SHSY-5Y cells [1]: effective at preventing cell death; also recorded: more effective; IC50 (Kgp; Kgp IC50, figure legend): 1 to 10 nM
NCCCC[C@H](NC(=O)[C@H]1CCCN(C(=O)CCc2ccccc2)C1)C(=O)c1nc2ccccc2s1 [Compound 3, (3S)—N-[(1S)-5-amino-1-(1,3-benzothiazole-2-carbonyl)pentyl]-1-(3-phenylpropanoyl)piperidine-3-carboxamide] | 10 to 25 nM | prevention of gingipain-induced death of differentiated SHSY-5Y cells [1]: does not; IC50 (Kgp; Kgp IC50, figure legend): 10 to 25 nM
NCCCC[C@H](NC(=O)[C@@H]1CCCN(C(=O)CCc2ccccc2)C1)C(=O)c1nc2ccccc2s1 [Compound 4, (3R)—N-[(1S)-5-amino-1-(1,3-benzothiazole-2-carbonyl)pentyl]-1-(3-phenylpropanoyl)piperidine-3-carboxamide] | 1 to 10 nM | prevention of gingipain-induced death of differentiated SHSY-5Y cells [1]: prevents gingipain-induced death; prevention of gingipain-induced death of differentiated SHSY-5Y cells ([1]; listed as 2-(N—[N-(3-phenylpropanoyl)-(R)-nipecotinyl]-(R)-lysinyl)-benzothiazole): effective at preventing cell death; IC50 (Kgp; Kgp IC50, figure legend): 1 to 10 nM
NCCCC[C@H](NC(=O)c1ccccc1C(F)(F)F)C(=O)c1nc2ccccc2s1 [Compound 7, N-[(1S)-5-amino-1-(1,3-benzothiazole-2-carbonyl)pentyl]-2-(trifluoromethyl)benzamide] | 25 to 50 nM | –
CC(=O)N1CCC[C@H](C(=O)N[C@@H](CCCCN)C(=O)c2nc3ccccc3s2)C1 [Compound 8, (3S)-1-acetyl-N-[(1S)-5-amino-1-(1,3-benzothiazole-2-carbonyl)pentyl]piperidine-3-carboxamide] | 10 to 25 nM | –
CC(=O)N1CCC[C@@H](C(=O)N[C@@H](CCCCN)C(=O)c2nc3ccccc3s2)C1 [Compound 9, (3R)-1-acetyl-N-[(1S)-5-amino-1-(1,3-benzothiazole-2-carbonyl)pentyl]piperidine-3-carboxamide] | 1 to 10 nM | –
CC(=O)N1CCC[C@H](C(=O)N[C@H](CCCCN)C(=O)c2nc3ccccc3s2)C1 [Compound 10, (3S)-1-acetyl-N-[(1R)-5-amino-1-(1,3-benzothiazole-2-carbonyl)pentyl]piperidine-3-carboxamide] | 10 to 25 nM | –
CC(=O)N1CCC[C@@H](C(=O)N[C@H](CCCCN)C(=O)c2nc3ccccc3s2)C1 [Compound 11, (3R)-1-acetyl-N-[(1R)-5-amino-1-(1,3-benzothiazole-2-carbonyl)pentyl]piperidine-3-carboxamide] | 1 to 10 nM | –

Structure (SMILES) | IC50 (Kgp; [2]) | other results
NCCCC[C@H](NC(=O)c1ccccn1)C(=O)c1nc2ccccc2s1 [Compound 12, N-[(1S)-5-amino-1-(1,3-benzothiazole-2-carbonyl)pentyl]pyridine-2-carboxamide] | 50 to 100 nM | –
NCCCC[C@H](NC(=O)c1ccncc1)C(=O)c1nc2ccccc2s1 [Compound 13, N-[(1S)-5-amino-1-(1,3-benzothiazole-2-carbonyl)pentyl]pyridine-4-carboxamide] | 25 to 50 nM | –
NCCCC[C@H](NC(=O)C1CCOCC1)C(=O)c1nc2ccccc2s1 [Compound 22, N-[(1S)-5-amino-1-(1,3-benzothiazole-2-carbonyl)pentyl]tetrahydropyran-4-carboxamide] | 10 to 25 nM | –
NCCCC[C@H](NC(=O)OCc1ccccc1)C(=O)c1nc2ccccc2s1 [Compound 23, Benzyl-N-[(1S)-5-amino-1-(1,3-benzothiazole-2-carbonyl)pentyl]carbamate] | 100 to 250 nM | –
NCCCC[C@H](NC(=O)C1CCCC1)C(=O)c1nc2ccccc2s1 [Compound 24, N-[(1S)-5-amino-1-(1,3-benzothiazole-2-carbonyl)pentyl]cyclo-pentanecarboxamide] | 1 to 10 nM | –
CC(=O)N1CCOC(C(=O)N[C@@H](CCCCN)C(=O)c2nc3ccccc3s2)C1 (stereo partly drawn) [Compound 29, 4-acetyl-N-[(1S)-5-amino-1-(1,3-benzothiazole-2-carbonyl)pentyl]morpholine-2-carboxamide] | 10 to 25 nM | –
NCCCC[C@H](NC(=O)c1cccnc1)C(=O)c1nc2ccccc2s1 [Compound 30, N-[(1S)-5-amino-1-(1,3-benzothiazole-2-carbonyl)pentyl]pyridine-3-carboxamide] | 25 to 50 nM | –
NCCCC[C@H](NC(=O)C1CCCc2ccccc21)C(=O)c1nc2ccccc2s1 (stereo partly drawn) [Compound 31, N-[(1S)-5-amino-1-(1,3-benzothiazole-2-carbonyl)pentyl]tetralin-1-carboxamide] | 10 to 25 nM | –
NCCCC[C@H](NC(=O)C1CCc2ccccc2C1)C(=O)c1nc2ccccc2s1 (stereo partly drawn) [Compound 32, N-[(1S)-5-amino-1-(1,3-benzothiazole-2-carbonyl)pentyl]tetralin-2-carboxamide] | 1 to 10 nM | –
CC1(C(=O)N[C@@H](CCCCN)C(=O)c2nc3ccccc3s2)CCCCC1 [Compound 33, N-[(1S)-5-amino-1-(1,3-benzothiazole-2-carbonyl)pentyl]-1-methyl-cyclohexanecarboxamide] | 1 to 10 nM | –
NCCCC[C@H](NC(=O)c1cncs1)C(=O)c1nc2ccccc2s1 [Compound 38, N-[(1S)-5-amino-1-(1,3-benzothiazole-2-carbonyl)pentyl]thiazole-5-carboxamide] | 10 to 25 nM | –
NCCCC[C@H](NC(=O)c1nccs1)C(=O)c1nc2ccccc2s1 [Compound 39, N-[(1S)-5-amino-1-(1,3-benzothiazole-2-carbonyl)pentyl]thiazole-2-carboxamide] | 50 to 100 nM | –
NCCCC[C@H](NC(=O)c1cccc(=O)[nH]1)C(=O)c1nc2ccccc2s1 [Compound 40, N-[(1S)-5-amino-1-(1,3-benzothiazole-2-carbonyl)pentyl]-6-oxo-1H-pyridine-2-carboxamide] | 25 to 50 nM | –
COC1(C(=O)N[C@@H](CCCCN)C(=O)c2nc3ccccc3s2)CCCCC1 [Compound 41, (S)—N-(6-amino-1-(benzo[d]thiazol-2-yl)-1-oxohexan-2-yl)-1-methoxycyclohexanecarboxamide] | 10 to 25 nM | –
NCCCC[C@H](NC(=O)C1CCCC1)C(=O)c1nccs1 [Compound 42, N-[(1S)-5-amino-1-(thiazole-2-carbonyl)pentyl]cyclopentanecarboxamide] | 50 to 100 nM | –
NCCCC[C@H](NC(=O)C1CCCC1)C(=O)COc1c(F)c(F)cc(F)c1F [Compound 43, N-[(1S)-5-amino-1-[2-(2,3,5,6-tetrafluorophenoxy)acetyl]pentyl]cyclo-pentanecarboxamide] | < 1 nM | protection of SHSY5Y cells from P. gingivalis-induced toxicity (SHSY5Y cells): protects SHSY5Y cells; Kgp IC50 (in words) (Kgp; irreversible covalent inhibitor): sub-nanomolar
NCCCC[C@H](NC(=O)C1CCCC1)C(=O)c1ccccn1 [Compound 44, N-[(1S)-5-amino-1-(pyridine-2-carbonyl)pentyl]cyclopentanecarboxamide] | > 250 nM | –
